Experimental data taken from the NIST ThermoML archive (doi:10.1021/je101012n).

Assay: mn = molality of the nth substance listed, in mol/kg
Details: 101 kPa, Liquid, Alternating current cell with electrodes

O=[N+]([O-])[O-].O=[N+]([O-])[O-].O=[N+]([O-])[O-].[Al+3] [aluminum trinitrate] + O
electrical conductivity [S/m]
Details | 278.1 K | 283.1 K | 298.15 K | 308.15 K | 318.15 K | 343.15 K | 363.15 K
m1 = 8.8e-05 | – | – | – | – | – | 0.09049 | 0.1042
m1 = 0.000883 | 0.05671 | 0.06384 | 0.08484 | 0.09898 | 0.1135 | 0.1533 | 0.1872
m1 = 0.00871 | 0.2168 | 0.2457 | 0.3424 | 0.411 | 0.4827 | 0.6932 | 0.8941
m1 = 0.0881 | 1.551 | 1.706 | 2.378 | 2.873 | 3.387 | 4.867 | 5.923
m1 = 0.158 | 2.511 | 2.826 | 3.913 | 4.788 | 5.595 | 7.689 | 9.698

Cl.N [ammonium chloride (NH4Cl)] + O
electrical conductivity [S/m]
Details | 278.15 K | 283.15 K | 298.15 K | 308.15 K | 318.15 K | 343.15 K | 363.15 K
m1 = 0.000977 | 0.008892 | 0.01017 | 0.01441 | 0.01738 | 0.02024 | 0.0287 | 0.03591
m1 = 0.00965 | 0.0856 | 0.09786 | 0.1381 | 0.1671 | 0.1938 | 0.2731 | 0.3363
m1 = 0.09765 | 0.7999 | 0.9148 | 1.276 | 1.545 | 1.801 | 2.535 | 3.142
m1 = 0.4735 | 3.542 | 4.027 | 5.525 | 6.577 | 7.691 | 10.75 | 13.26
m1 = 1.034 | 7.301 | 8.293 | 11.12 | 13.13 | 15.36 | 21.55 | 25.35

[Ba+2].[Cl-].[Cl-] [barium chloride] + O
electrical conductivity [S/m]
Details | 278.15 K | 283.15 K | 298.15 K | 308.15 K | 318.15 K | 343.15 K | 363.15 K
m1 = 9.2e-05 | 0.001632 | 0.00188 | 0.002597 | 0.003085 | 0.003626 | 0.005187 | 0.00644
m1 = 0.0011 | 0.01799 | 0.0206 | 0.02897 | 0.03508 | 0.04141 | 0.05911 | 0.07372
m1 = 0.00896 | 0.1386 | 0.1585 | 0.2229 | 0.2681 | 0.3161 | 0.4493 | 0.5593
m1 = 0.1029 | 1.366 | 1.553 | 2.167 | 2.588 | 3.034 | 4.247 | 4.814
m1 = 0.31 | 3.657 | 4.127 | 5.589 | 6.794 | 7.859 | 10.32 | 12.51

[Ca+2].[Cl-].[Cl-] [calcium chloride] + O
electrical conductivity [S/m]
Details | 278.15 K | 283.15 K | 298.15 K | 308.15 K | 318.15 K | 343.15 K | 363.15 K
m1 = 7.6e-05 | 0.001256 | 0.001432 | 0.001998 | 0.002384 | 0.002814 | 0.004073 | 0.00517
m1 = 0.000755 | 0.01195 | 0.01369 | 0.01945 | 0.02351 | 0.02784 | 0.03992 | 0.05001
m1 = 0.00755 | 0.1103 | 0.1263 | 0.1792 | 0.216 | 0.2547 | 0.3636 | 0.4547
m1 = 0.0755 | 0.9331 | 1.062 | 1.496 | 1.793 | 2.11 | 2.982 | 3.694
m1 = 0.3773 | 4.179 | 4.73 | 6.531 | 7.792 | 9.092 | 12.66 | 15.58

O=S(=O)([O-])[O-].[Ca+2] [calcium sulfate] + O
electrical conductivity [S/m]
Details | 278.15 K | 283.15 K | 298.15 K | 308.15 K | 318.15 K | 343.15 K | 363.15 K
m1 = 7.6e-05 | 0.00123 | 0.001409 | 0.001963 | 0.002529 | 0.003011 | 0.004223 | 0.00536
m1 = 0.00102 | 0.01397 | 0.01601 | 0.02275 | 0.02808 | 0.0325 | 0.04537 | 0.05546
m1 = 0.01245 | 0.1154 | 0.1331 | 0.185 | 0.2255 | 0.2573 | 0.3419 | 0.3973

[Cl-].[Cs+] [cesium chloride] + O
electrical conductivity [S/m]
Details | 278.15 K | 283.15 K | 298.15 K | 308.15 K | 318.15 K | 343.15 K | 363.15 K
m1 = 0.000106 | 0.001018 | 0.001151 | 0.001597 | 0.001917 | 0.002242 | 0.003135 | 0.004007
m1 = 0.00101 | 0.009529 | 0.01089 | 0.0151 | 0.01817 | 0.02103 | 0.0293 | 0.03658
m1 = 0.01058 | 0.09738 | 0.1107 | 0.1539 | 0.185 | 0.2142 | 0.2972 | 0.3702
m1 = 0.1009 | 0.8548 | 0.9735 | 1.346 | 1.614 | 1.859 | 2.604 | 3.107
m1 = 0.4763 | 3.754 | 4.256 | 5.762 | 6.816 | 7.917 | 11.01 | 13.23
m1 = 1.09 | 8.303 | 9.355 | 12.29 | 14.25 | 16.55 | 22.98 | 26.87

O=S(=O)([O-])[O-].[Cs+].[Cs+] [cesium sulfate] + O
electrical conductivity [S/m]
Details | 278.15 K | 283.15 K | 298.15 K | 308.15 K | 318.15 K | 343.15 K | 363.15 K
m1 = 0.000101 | 0.001962 | 0.002237 | 0.003069 | 0.003625 | 0.004233 | 0.006348 | 0.0078
m1 = 0.00105 | 0.01932 | 0.02195 | 0.0306 | 0.03666 | 0.04304 | 0.06181 | 0.07641
m1 = 0.01021 | 0.1676 | 0.1906 | 0.2654 | 0.3173 | 0.3716 | 0.5216 | 0.6438
m1 = 0.1047 | 1.358 | 1.539 | 2.124 | 2.529 | 2.958 | 4.094 | 5.022
m1 = 0.1836 | 2.24 | 2.528 | 3.468 | 4.119 | 4.792 | 6.59 | 8
m1 = 0.3588 | 4.083 | 4.58 | 6.204 | 7.32 | 8.463 | 11.58 | 13.73

O=[N+]([O-])[O-].O=[N+]([O-])[O-].[Cu+2] [copper dinitrate] + O
electrical conductivity [S/m]
Details | 278.1 K | 283.1 K | 298.15 K | 308.15 K | 318.15 K | 343.15 K | 363.15 K
m1 = 0.0001 | 0.01101 | 0.01227 | – | – | – | 0.02684 | 0.0318
m1 = 0.0011 | 0.02486 | 0.02823 | 0.0388 | 0.04633 | 0.05303 | 0.07303 | 0.08992
m1 = 0.01032 | 0.1433 | 0.1641 | 0.2308 | 0.2795 | 0.3256 | 0.4628 | 0.5792
m1 = 0.1108 | 1.207 | 1.382 | 1.935 | 2.333 | 2.746 | 3.918 | 4.838
m1 = 0.3459 | 3.219 | 3.68 | 5.093 | 6.092 | 7.235 | 10.34 | 12.57

O=[N+]([O-])[O-].O=[N+]([O-])[O-].O=[N+]([O-])[O-].[Fe+3] [ferric nitrate] + O
electrical conductivity [S/m]
Details | 278.1 K | 283.1 K | 298.15 K | 308.15 K | 318.15 K | 343.15 K | 363.15 K
m1 = 9.9e-05 | – | – | – | – | – | 9.086 | 10.27
m1 = 0.000984 | – | – | – | – | – | 9.106 | 10.33
m1 = 0.00985 | – | – | – | – | – | 9.553 | 10.91
m1 = 0.09618 | 5.143 | 5.777 | 7.576 | 8.788 | 10.15 | 13.85 | 16.52
m1 = 0.2534 | 6.656 | 7.523 | 9.984 | 11.83 | 14.02 | 20.32 | –
